Read-outs that look alike come from different tables or passages of the source.
How the values were obtained:
[1] = cited from earlier work
[2] = Kinetic permeation of biocides using vertical Franz diffusion cells
Method: (§1) As in the previous TEWL study, sublingual mucosa and porcine skin dermatomized to a thickness of 500-700 µm are used. Kinetic diffusion studies were performed using a vertical diffusion cell (Lara Spiral, Couternon, France (1.86 cm^2 and 3 ml). The receiver fluid (RF) used was PBS:EtOH (1:1). A water bath was set at 43°C to obtain a membrane surface temperature of 32 ± 1°C.
(§2) Subsequently, the drugs are deposited to determine their kinetics. To that end, 300 µl (infinite dose) of the 1% solution of the 4 drugs in methanol were applied to each Franz cell, in triplicate. Aliquots of 0.2 ml were collected at different times (30 min, 1 h, 2 h, 4 h). The active ingredients were diluted in suitable graduated flasks and filtered through a 0.22 µm nylon filter (Cameo, Sigma-Aldrich, St Louis, U. S.A.). They were then further analyzed with a high performance liquid chromatography diode array detector (HPLC-DAD).
(§3) The equation is as follows (1): Qn = (Cn × Vc + ∑i = 1^(n−1) (Ci×Vs))/(A) [formula]
(§4) Wherein: Qn is the cumulative amount of active ingredient released at time n (µg/cm^2); Cn is the concentration of active ingredient in the sample (µg/ml); Vc is the volume of the vertical diffusion cell (7 ml); ∑i = 1^(n−1) Ci [formula] is the sum of the API concentrations (µg/ml) determined at sampling intervals 1 to n-1; Vs is the volume of the sample, and A is the surface area of the sample (1.77 cm^2).
(§5) Two parameters were used, Qn and % API release, to obtain graphs showing absorption and penetration kinetics (Y-axis). Time or its square root (√t) is indicated on the X-axis. […] This step allowed determining the best absorption model to represent the penetration kinetics of the API through the different membranes. The model was obtained with the non-linear regression software STATGRAPHICS plus 5 (Statgraphics Technologies, Inc., Virginia, U. S.A.), and the best equation was selected based on the highest correlation coefficient corrected by the number of degrees of freedom (R2 DoF). Once having defined the model, it was possible to calculate other parameters, such as the flow (J), permeability coefficient (Kp), delay time (TI), maximum concentration (Cmax), maximum time (tmax), and area under the curve (AUC). All results are expressed as mean ± standard deviation (SD).
(§6) Furthermore, porcine skin permeation is studied. As mentioned in the introduction, the barrier structure of the skin differs greatly from that of the mucosae.
(§7) The biocides evaluated were fungitrol (FUN), propiconazole (PRO), and permethrin (PER) dissolved in ethanol at a concentration of 1% for each active ingredient. […] Table 9. Biocides and their physicochemical properties.
(§8) Table 10. Conditions of the method which are used in HPLC/DAD analysis for fungitrol, propiconazole, and permethrin

[3] = as above; remark: listed apart in the source
Method: as §1, §2, §3, §4, §5, §6, §7, §8

[4] = BCS group; cited from earlier work
in vitro [5] = assay: in vitro
Source text: (§9) Furthermore, porcine skin permeation is studied. As mentioned in the introduction, the barrier structure of the skin differs greatly from that of the mucosae. In this sense, it will be evaluated whether the mucosae modified both by lipophilic compositions and by compositions that mimic the stratum corneum could have a barrier effect similar to that of the skin.
(§10) Next, the main physicochemical properties which are important in permeability through keratin tissues, such as the skin and mucosae, and the classification to which they belong are described in detail. […] Compounds to be evaluated, physicochemical properties, and classification.
as §1, §2
(§11) The software used was OpenLab. […] The ICH guidelines were followed to obtain the calibration curve, the limit of quantification (LoQ), and the limit of detection (LoD). The HPLC-DAD analytical conditions and the method for the four active ingredients are described in detail in Table 4.
as §3, §4, §5

in vitro [6] = conditions: for Permea. coeff., Kp / Cmax at 1 %: pig; for Cmax at 1 %: Conc. Max.
Source text: as §9, §10, §1
After 1 h, the TEWL is measured again (Table 3). Table 3. Application of the composition F-MI and evaluation of transepidermal water loss, from the skin, from porcine sublingual mucosa and from the same mucosa modified by applying composition F-MI before applying the drugs.
as §2, §11, §3, §4, §5

[7] = sublingual mucosa with F-MI, 1% in ethanol
[8] = unmodified sublingual mucosa, 1% in ethanol
[9] = skin, 300 µl of 1% solution in methanol

Structure (SMILES) | LogP (pH 7.4) ([1]; biocides, Table 9, PubChem) | Flow, J [2, 7] [µg/cm^2/h] | Latency time, LT [2, 7] [h] | Permea. coeff., Kp [2, 7] | Flow, J [2, 8] [µg/cm^2/h] | Latency time, LT [2, 8] [h] | Flow, J ([3]; skin, 1% in ethanol) [µg/cm^2/h] | Latency time, LT ([3]; skin, 1% in ethanol) [h] | Group [4] | Area under the curve, AUC (in vitro [5]) [mg/cm^2] | Flow, J (in vitro [5]; pig, 1 %) | Latency time, LT (in vitro [5]; pig, 1 %) | further results
CCCCNC(=O)OCC#CI [Fungitrol (FUN), 3-lodo-2-propynyl butylcarbamate] | 2.4 | 5.59±1.32 | 0.65 ± 0.08 | 0.61±0.14 10^-3cm/h | 62.88±29.97 | -0.34 ± 1.32 | 6.02±3.93 | 0.70 ± 0.00 | – | – | – | – | Permea. coeff., Kp [2, 8]: 6.80±3.26 10^-3cm/h; Permea. coeff., Kp ([3]; skin, 1% in ethanol): 1.00±0.40 10^-3cm/h
CCCC1COC(Cn2cncn2)(c2ccc(Cl)cc2Cl)O1 (centres unmarked) [Propiconazole (PRO), Propiconazole] | 3.7 | 6.62±3.74 | 1.66 ± 1.00 | 0.70±0.39 10^-3cm/h | 63.92±44.92 | -0.04 ± 1.68 | 2.26±1.48 | 0.60 ± 0.015 | – | – | – | – | Permea. coeff., Kp [2, 8]: 6.80±4.78 10^-3cm/h; Permea. coeff., Kp ([3]; pig): 0.24±0.16 10^-3cm/h
CC[C@H](C)[C@H]1O[C@]2(CC[C@@H]1C)C[C@@H]1C[C@@H](C/C=C(\C)[C@@H](O[C@H]3C[C@H](OC)[C@@H](O[C@H]4C[C@H](OC)[C@@H](O)[C@H](C)O4)[C@H](C)O3)[C@@H](C)/C=C/C=C3\CO[C@@H]4[C@H](O)C(C)=C[C@@H](C(=O)O1)[C@]34O)O2 [Ivermectin (IVE), Ivermectin] | – | – | – | – | – | – | – | – | 4 | – | – | – | LogP (pH 7.4) ([1]; drugs, Table 2): 5.83; Flow, J (in vitro [5]; [9]): 3.13±0.86 µg/cm^2/h; Latency time, LT (in vitro [5]; [9]): 0.59 ± 0.28 h; permeability through the unmodified mucosa compared to the skin (in vitro [6]): 20 times; Latency time, LT (in vitro [6]; sublingual mucosa with F-MI (70 µl deposited 1 h before), 1% solution in methanol): 0.28 ± 0.02 h; Flow, J (in vitro [6]; unmodified sublingual mucosa, 1% solution in methanol): 63.75±1.57 µg/cm^2/h
CC(C)Cc1ccc(C(C)C(=O)O)cc1 (centres unmarked) [Ibuprofen (IBU), Ibuprofen] | – | – | – | – | – | – | – | – | 2 | 0.10 ± 0.01 | 24.79 ± 2.75 µg/cm^2/h | -0.24 ± 0.19 h | Cmax at 1 % (in vitro [5]; pig): 21900 ± 1980 ng/mL; Permea. coeff., Kp (in vitro [5]; pig): 2.05 ± 0.23 10^-3cm/h; Permea. coeff., Kp (in vitro [6]): 28.67±0.49 10^-3cm/h; Permea. coeff., Kp (in vitro [6]; 1 h): 41.18±4.09 10^-3cm/h; Cmax at 1 % (in vitro [6]): 341000 ± 63600 ng/mL
CC1(C)C(C=C(Cl)Cl)C1C(=O)OCc1cccc(Oc2ccccc2)c1 (centres unmarked) [Permethrin (PER), Permethrin] | 6.5 | 3.85±4.00 | -0.28 ± 1.77 | 0.26±0.27 10^-3cm/h | 58.67±45.51 | -0.53 ± 1.14 | 2.93±0.23 | -1.49 ± 0.66 | – | – | – | – | Cmax at 1 % ([2]; pig): 15700 ± 20300 ng/mL; Permea. coeff., Kp ([2]; pig): 4.02±3.12 10^-3cm/h; Cmax at 1 % ([3]; pig): 9350 ± 110 ng/mL; Permea. coeff., Kp ([3]; pig): 0.20±0.015 10^-3cm/h
C[C@@H]1C[C@H]2[C@@H]3CCC4=CC(=O)C=C[C@]4(C)[C@@]3(F)[C@@H](O)C[C@]2(C)[C@@]1(O)C(=O)CO [Dexamethasone (DEX), Dexamethasone] | – | – | – | – | – | – | – | – | – | 0.03±0.01 | 5,84±3,46 µg/cm^2/h | 0,62±0,16 h | LogP (pH 7.4) ([1]; drugs, Table 2): 1.74; Cmax at 1 % (in vitro [5]; pig): 67400 ng/mL; Cmax at 1 % (in vitro [6]): 315000 ng/mL
Cn1c(=O)c2c(ncn2C)n(C)c1=O [Caffeine (CAF), Caffeine] | – | – | – | – | – | – | – | – | 1 | 0.41±0.27 | 75.09±51.32 µg/cm^2/h | 0.65 ± 0.24 h | Conc. Max., Cmax (in vitro [5]): 107.23±57.7 3 µg/ml; Permea. coeff., Kp (in vitro [5]; pig): 6.06±4.12 10^-3cm/h; Permea. coeff., Kp (in vitro [6]): 34.55±6.56 10^-3cm/h; Permea. coeff., Kp (in vitro [6]; 1 h): 8.28±2.48 10^-3cm/h
